Test system: pp28-luciferase Towne strain
Assay: Virus titration of first cycle supernatants by plaque assay
Type: cell-based, human cytomegalovirus
Details: MDP-pretreated cells, plaques at 8 days
Experimental: Human Foreskin Fibroblasts (HFFs) passage 12-16 (ATCC, CRL-2088™) were grown in Dulbecco's Modified Eagle Medium (DMEM) containing 10% fetal bovine serum (FBS) (Gibco, Carlsbad, Calif.) in a 5% CO2 incubator at 37° C. The generation of NOD2-KD HFFs (HFF-shNOD2) and control cells (HFF-GIPZ) was reported. One day prior to infection or treatment, 8×10^4 cells were seeded into each well of 12-well tissue culture plates. Multiplicities of infection were specified for each experiment. The Towne HCMV strain was obtained from ATCC (VR-977). The pp28-luciferase Towne strain which expresses luciferase under the control of the pp28 late promoter has been described. Luciferase activity was measured at 72 or 96 hours post infection (hpi) using the Glomax-Multi+ Detection System (Promega, Madison, Wis.). In second cycle replication assays cell free supernatants from HFFs infected with pp28-luciferase Towne were collected 4 days post completion of first replication cycle (5-10% of total volume/well), and used for infection of fresh HFFs seeded into 12-well plates. […] Supernatants from the first cycle were also used to measure virus titer in 12-well plates and plaques were counted at day 8 post infection. […] The Johns Hopkins School of Medicine Office of Human Subject Research Institutional Review Board (IRB-X) determined that the research qualified for an exemption.

SMILES: CC(=O)N[C@H]1C(O)O[C@H](CO)[C@@H](O)[C@@H]1O[C@H](C)C(=O)N[C@@H](C)C(=O)N[C@H](CCC(=O)O)C(N)=O (mixture of isomers) [MDP, Muramyl dipeptide]
- reduction in virus titer: 6 fold
